Data on twelve molecules can be found in ChEMBL document CHEMBL1201862, “PubChem BioAssay data set” (2004).

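Interpolation was linear, between the two tested concentrations surrounding the appropriate level; five concentrations were tested over 48 hours in 96-well plates. At the GI50, growth is halved.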 Active and inactive are the calls of the source. Cut-off read from the data, not from the text of the source: active = GI50 up to about 1.1 µM and inactive = higher. Residues, ends and D or L forms follow the SMILES beside them. *: point of attachment. Cbz = O=C(OCc1ccccc1)*

Some test systems named below: SN12C; Malme-3M; EKVX; OVCAR-4; SNB-75; MOLT-4; DMS-114; SF-539; A549; HCT-116; OVCAR-3; UACC-62; M14; CCRF-CEM; NCI-H522; SF-268; CAKI-1; NCI/ADR-RES; MDA-N; HOP-92.
Assay in all cases: NCI-60 cell line screen, 48 h

Consider `COc1cc(NCC(C#N)C#N)ccc1/N=N/c1ccc(Cl)cc1`, for which the GI50 was 38.8 µM (inactive) in the test with SN12C; 35.2 µM (inactive) in the test on Malme-3M; 21.1 µM (inactive) with EKVX; 37.1 µM (inactive) in the test with OVCAR-4; 31.6 µM (inactive) in the test with SNB-75; 15.5 µM (inactive) in the test with MOLT-4. For the same molecule, the GI50 in the test with DMS-114 was 18.5 µM (inactive); with SF-539 it was 25.1 µM (inactive); in the test with A549, 33.4 µM (inactive); in the test on HCT-116 it was 23.7 µM (inactive); with OVCAR-3, 20.6 µM (inactive); with UACC-62, 10.6 µM (inactive). Moreover, the GI50 in the test with M14 is 16.4 µM (inactive); in the test on CCRF-CEM it was 18.9 µM (inactive); in the test on NCI-H522, 16.6 µM (inactive); in the test on SF-268, 38.5 µM (inactive).
For the molecule `COC(=O)C1=CCON(c2ccccc2)C1c1ccccc1` (stereo unspecified), the GI50 is > 10 µM (inactive) with SN12C; 42.9 µM (inactive) with CAKI-1; 48.1 µM (inactive) in the test with Malme-3M; 42.1 µM (inactive) with EKVX; > 10 µM (inactive) in the test on OVCAR-4; 49.5 µM (inactive) with SNB-75. Also, the GI50 in the test on MOLT-4 is 27 µM (inactive); with DMS-114, 48.3 µM (inactive); in the test on SF-539 it was > 100 µM (inactive); in the test with A549, 40.2 µM (inactive); with OVCAR-3, > 100 µM (inactive); in the test with UACC-62, 49.8 µM (inactive). Further, the GI50 in the test on M14 is 32.2 µM (inactive); in the test on CCRF-CEM, 47.4 µM (inactive); in the test with NCI-H522 it was 20.7 µM (inactive); in the test on SF-268, 75.3 µM (inactive).
In the case of `C/C=C/C=C/C=C/C=C/C(=O)O`, the GI50 in the test with SN12C, with CAKI-1, in the test with Malme-3M, in the test on EKVX, in the test with OVCAR-4 and with SNB-75 was > 100 µM (inactive) throughout. For the same molecule, the GI50 in the test on MOLT-4, in the test on DMS-114, in the test on SF-539, in the test with A549, in the test with HCT-116 and in the test on OVCAR-3 was > 100 µM (inactive) throughout. Moreover, the GI50 with UACC-62, with M14, in the test on CCRF-CEM, with NCI-H522 and in the test with SF-268 was > 100 µM (inactive) in each case.
On to `CCOc1ccccc1/N=N/c1ccc2oc(=O)c(C(C)=O)cc2c1`, for which the GI50 in the test with SN12C was > 100 µM (inactive); in the test with CAKI-1 it was > 100 µM (inactive); with Malme-3M, > 100 µM (inactive); in the test with EKVX it was 45.9 µM (inactive); in the test with OVCAR-4 it was > 100 µM (inactive); with SNB-75 it was 16 µM (inactive). In addition, the GI50 with MOLT-4, with DMS-114, in the test on SF-539, in the test on A549, in the test with HCT-116 and in the test with OVCAR-3 was > 100 µM (inactive) in each case. The GI50 in the test on UACC-62 was > 100 µM (inactive); in the test on M14 it was > 100 µM (inactive); with CCRF-CEM it was > 100 µM (inactive); with NCI-H522 it was 58.9 µM (inactive); with SF-268 it was > 100 µM (inactive).
On to `Cc1cc(Cl)ccc1NC1=NC(=O)C(CC(=O)Nc2ccc(Cl)cc2Cl)S1` (stereo unspecified), for which the GI50 in the test with SN12C, in the test with CAKI-1, in the test on Malme-3M, in the test with EKVX, in the test with OVCAR-4 and in the test on SNB-75 was > 100 µM (inactive) throughout. The GI50 in the test with MOLT-4, in the test with DMS-114, in the test with SF-539, with A549, in the test on OVCAR-3 and in the test on UACC-62 was > 100 µM (inactive) throughout. Moreover, the GI50 in the test on M14, in the test on CCRF-CEM and with SF-268 was > 100 µM (inactive) throughout.
As to `CC(C)C1CNC2N1C(=O)C2(C)OCc1ccccc1` (stereo unspecified), the GI50 in the test with SN12C is > 100 µM (inactive); in the test with Malme-3M it was > 100 µM (inactive); in the test with EKVX it was > 100 µM (inactive); with OVCAR-4, > 100 µM (inactive); in the test with SNB-75 it was 48.2 µM (inactive); in the test with MOLT-4 it was 80.5 µM (inactive). The GI50 in the test on DMS-114, with SF-539, in the test with A549, in the test on HCT-116, with OVCAR-3 and with UACC-62 was > 100 µM (inactive) throughout. Besides, the GI50 with M14, in the test on CCRF-CEM and in the test with SF-268 was > 100 µM (inactive) in each case.
`O=[N+]([O-])c1cc(-c2nnc(S)[nH]2)ccc1O`: the GI50 is > 100 µM (inactive) in the test with SN12C; > 100 µM (inactive) with CAKI-1; > 100 µM (inactive) in the test with Malme-3M; > 100 µM (inactive) in the test on EKVX; > 100 µM (inactive) with OVCAR-4; 32.4 µM (inactive) with DMS-114. In addition, the GI50 in the test with SF-539, in the test with A549, in the test with HCT-116, with UACC-62, with M14 and in the test with CCRF-CEM was > 100 µM (inactive) throughout. For the same molecule, the GI50 in the test with SF-268 was > 100 µM (inactive).
Regarding `COc1cc(CCNC2=CC(=O)c3cccnc3C2=O)ccc1O`, the GI50 in the test with SN12C was 0.944 µM (active); in the test on CAKI-1, 1.39 µM (inactive); in the test on Malme-3M it was 1.1 µM (active); in the test with NCI/ADR-RES, 2.55 µM (inactive); with EKVX, 3.08 µM (inactive); in the test on OVCAR-4, 1.92 µM (inactive). Also, the GI50 in the test on SNB-75 is 0.83 µM (active); in the test on MOLT-4, 4.09 µM (inactive); in the test on SF-539, 1.59 µM (inactive); in the test on A549 it was 1.56 µM (inactive); with HCT-116, 1.84 µM (inactive); in the test with OVCAR-3 it was 2.04 µM (inactive). Further, the GI50 was 0.957 µM (active) in the test with UACC-62; 0.167 µM (active) in the test with MDA-N; 1.49 µM (inactive) with M14; 3.64 µM (inactive) with CCRF-CEM; 0.721 µM (active) in the test on NCI-H522; 5.48 µM (inactive) with HOP-92. In addition, the GI50 in the test with SF-268 was 2.07 µM (inactive).
Turning to `O=C1/C(=C/c2ccccc2)CCC/C1=C\c1ccc(O)c(CN2CCCCC2)c1`, the GI50 is 2.82 µM (inactive) in the test with SN12C; 8.07 µM (inactive) with CAKI-1; 11.4 µM (inactive) in the test with Malme-3M; 2.69 µM (inactive) in the test with NCI/ADR-RES; 6.75 µM (inactive) in the test on EKVX; 5.5 µM (inactive) in the test with OVCAR-4. Further, the GI50 in the test with SNB-75 was 6.37 µM (inactive); in the test with MOLT-4, 3.1 µM (inactive); in the test with SF-539, 2.95 µM (inactive); in the test on A549 it was 7.59 µM (inactive); in the test on HCT-116, 1.57 µM (inactive); in the test on OVCAR-3 it was 6.98 µM (inactive). The GI50 in the test on UACC-62 is 3.59 µM (inactive); with MDA-N, 2.56 µM (inactive); with M14, 3.26 µM (inactive); with CCRF-CEM it was 3.3 µM (inactive); with NCI-H522 it was 2.24 µM (inactive); in the test on HOP-92, 4.55 µM (inactive). In the test with SF-268, the GI50 was 5.07 µM (inactive).
Consider `CCOC(=O)CCC(NC(=O)OCc1ccccc1)C(=O)NC(CCC(=O)OCC)C(=O)OCC` (stereo unspecified) (Cbz-Glu(OEt)-Glu(OEt)-OEt; configuration not given here), for which the GI50 in the test on SN12C, with CAKI-1, in the test on Malme-3M, with NCI/ADR-RES, in the test on EKVX and with OVCAR-4 was > 100 µM (inactive) each time. The GI50 in the test with SNB-75, in the test with MOLT-4, in the test with SF-539, in the test on A549, in the test on HCT-116 and in the test on OVCAR-3 was > 100 µM (inactive) in each case. In addition, the GI50 in the test on UACC-62, in the test with MDA-N, in the test with M14, with CCRF-CEM, with NCI-H522 and in the test on HOP-92 was > 100 µM (inactive) each time. Also, the GI50 in the test with SF-268 is > 100 µM (inactive).
On to `COc1cc(O)c2c(c1O)C(=O)c1cc(C)ncc1C2=O`, for which the GI50 in the test with SN12C was 17.9 µM (inactive); in the test on Malme-3M, 9.71 µM (inactive); in the test with EKVX it was 40.5 µM (inactive); in the test with OVCAR-4 it was 35.4 µM (inactive); in the test on SNB-75 it was 20.3 µM (inactive); in the test with MOLT-4, 30.8 µM (inactive). The GI50 with DMS-114 is 18.9 µM (inactive); in the test on SF-539 it was 17.4 µM (inactive); in the test on A549, 17 µM (inactive); with HCT-116, 16.5 µM (inactive); with OVCAR-3, 16.7 µM (inactive); in the test on UACC-62, 17.3 µM (inactive). Besides, the GI50 is 24.8 µM (inactive) with M14, 19.2 µM (inactive) in the test with CCRF-CEM, 27 µM (inactive) in the test with NCI-H522 and 19.8 µM (inactive) in the test with SF-268.
`Cc1nc(C(N)=S)sc1C(=O)CC(=O)C(=O)Nc1cccc(Cl)c1C`: the GI50 with SN12C, with CAKI-1, in the test with Malme-3M, in the test with NCI/ADR-RES, in the test on EKVX and with OVCAR-4 was > 100 µM (inactive) in each case. Also, the GI50 in the test with SNB-75, with MOLT-4, in the test with SF-539, in the test with A549, with HCT-116 and in the test on OVCAR-3 was > 100 µM (inactive) each time. For the same molecule, the GI50 in the test on UACC-62, with MDA-N, with M14, in the test on CCRF-CEM, in the test with NCI-H522 and in the test on HOP-92 was > 100 µM (inactive) in each case. Further, the GI50 in the test on SF-268 was > 100 µM (inactive).
